According to article PMC12152147, “DDB1 engagement defines the selectivity of S656 analogs for cyclin K degradation over CDK inhibition” (EMBO Reports, 2025):
Several values for one entry are separate records, joined by “and”; a condition that tells them apart may be missing. Identical values can stand only once.

Experiments:
Test in all cases: Pull-down with immobilized probes and quantitative mass spectrometry
Format in all cases: binding, H. sapiens
[1] = target: T1, OCI-AML5 total protein extracts (cyclin K, CDKs, DDB1) (Homo sapiens, UniProt Q6UXT9); settings: protein ABHD15 (Q6UXT9)
T1 construct: endogenous in cells; host or cells: OCI-AML5 total protein extract
T1 sequence (Q6UXT9 24-468): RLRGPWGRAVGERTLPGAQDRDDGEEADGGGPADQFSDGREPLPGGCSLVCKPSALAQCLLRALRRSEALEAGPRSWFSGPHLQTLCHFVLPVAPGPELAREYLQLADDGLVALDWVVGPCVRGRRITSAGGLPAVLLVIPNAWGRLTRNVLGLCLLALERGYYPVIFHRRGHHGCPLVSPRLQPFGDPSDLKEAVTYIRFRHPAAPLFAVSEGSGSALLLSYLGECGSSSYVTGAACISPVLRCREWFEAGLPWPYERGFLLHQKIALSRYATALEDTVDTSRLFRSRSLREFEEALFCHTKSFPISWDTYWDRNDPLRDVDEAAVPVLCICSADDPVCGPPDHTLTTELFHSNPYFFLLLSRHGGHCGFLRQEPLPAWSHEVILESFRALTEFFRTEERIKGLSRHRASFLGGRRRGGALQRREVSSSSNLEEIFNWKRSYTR
Description: (§1) Probe compounds were immobilized through their terminal amine on NHS-sepharose beads as previously described (Médard et al, [2015]). The prepared beads were then washed in PBS and equilibrated in Triton X-100 buffer. For each replicate, 1–2 mg of total proteins (2 mg/ml) were incubated end-over-end with 25 μl of beads overnight at 4 °C in low protein binding microtubes (Sarstedt). The samples were then washed twice in Triton X-100 buffer, transferred to new microtubes and further washed six times in PBS including another microtube transfer at the last wash. Beads pellets were resuspended in 50 mM ammonium bicarbonate and subjected to reduction, alkylation and tryptic digest as described above. Peptides were separated on an home-made reversed-phase column (150-μm i.d. by 200 mm) with a 56-min gradient from 10 to 30% ACN-0.2% FA and a 600-nl/min flow rate on a Easy nLC-1200 connected to a Exploris 480 (ThermoFisher Scientific, San Jose, CA). Each full MS spectrum acquired at a resolution of 120,000 was followed by tandem-MS (MS-MS) spectra acquisition on the most abundant multiply charged precursor ions for 3 s. Tandem-MS experiments were performed using higher energy collision dissociation (HCD) at a collision energy of 34%. The data were processed using PEAKS X Pro (Bioinformatics Solutions, Waterloo, ON) and a Uniprot human database (20366 entries). Mass tolerances on precursor and fragment ions were 10 ppm and 0.01 Da, respectively. Fixed modification was carbamidomethyl (C). Variable selected posttranslational modifications were acetylation (N-ter), oxidation (M), deamidation (NQ), phosphorylation (STY). The data were visualized with Scaffold 5.0 (protein threshold, 99%, with at least 2 peptides identified and a false-discovery rate [FDR] of 1% for peptides).
(§2) Differential Enrichment analysis of Proteomics data (DEP) package (Zhang et al, [2018]) in R was used to analyze the data (excluding proteins identified based on a single peptide), including data filtering, normalization, imputation of missing values and statistical testing of differentially expressed proteins.

[2] = target: T2, OCI-AML5 total protein extracts (cyclin K, CDKs, DDB1) (Homo sapiens, UniProt P45844); settings: protein ABCG1 (P45844)
T2 construct: endogenous in cells; host or cells: OCI-AML5 total protein extract
Description: as §1, §2

[3] = target: T3, OCI-AML5 total protein extracts (cyclin K, CDKs, DDB1) (Homo sapiens, UniProt Q9NYV4); settings: OCI-AML5 total protein extracts; DEP analysis
T3 construct: endogenous in cells; host or cells: OCI-AML5 total protein extract
T3 sequence (Q9NYV4 whole entry): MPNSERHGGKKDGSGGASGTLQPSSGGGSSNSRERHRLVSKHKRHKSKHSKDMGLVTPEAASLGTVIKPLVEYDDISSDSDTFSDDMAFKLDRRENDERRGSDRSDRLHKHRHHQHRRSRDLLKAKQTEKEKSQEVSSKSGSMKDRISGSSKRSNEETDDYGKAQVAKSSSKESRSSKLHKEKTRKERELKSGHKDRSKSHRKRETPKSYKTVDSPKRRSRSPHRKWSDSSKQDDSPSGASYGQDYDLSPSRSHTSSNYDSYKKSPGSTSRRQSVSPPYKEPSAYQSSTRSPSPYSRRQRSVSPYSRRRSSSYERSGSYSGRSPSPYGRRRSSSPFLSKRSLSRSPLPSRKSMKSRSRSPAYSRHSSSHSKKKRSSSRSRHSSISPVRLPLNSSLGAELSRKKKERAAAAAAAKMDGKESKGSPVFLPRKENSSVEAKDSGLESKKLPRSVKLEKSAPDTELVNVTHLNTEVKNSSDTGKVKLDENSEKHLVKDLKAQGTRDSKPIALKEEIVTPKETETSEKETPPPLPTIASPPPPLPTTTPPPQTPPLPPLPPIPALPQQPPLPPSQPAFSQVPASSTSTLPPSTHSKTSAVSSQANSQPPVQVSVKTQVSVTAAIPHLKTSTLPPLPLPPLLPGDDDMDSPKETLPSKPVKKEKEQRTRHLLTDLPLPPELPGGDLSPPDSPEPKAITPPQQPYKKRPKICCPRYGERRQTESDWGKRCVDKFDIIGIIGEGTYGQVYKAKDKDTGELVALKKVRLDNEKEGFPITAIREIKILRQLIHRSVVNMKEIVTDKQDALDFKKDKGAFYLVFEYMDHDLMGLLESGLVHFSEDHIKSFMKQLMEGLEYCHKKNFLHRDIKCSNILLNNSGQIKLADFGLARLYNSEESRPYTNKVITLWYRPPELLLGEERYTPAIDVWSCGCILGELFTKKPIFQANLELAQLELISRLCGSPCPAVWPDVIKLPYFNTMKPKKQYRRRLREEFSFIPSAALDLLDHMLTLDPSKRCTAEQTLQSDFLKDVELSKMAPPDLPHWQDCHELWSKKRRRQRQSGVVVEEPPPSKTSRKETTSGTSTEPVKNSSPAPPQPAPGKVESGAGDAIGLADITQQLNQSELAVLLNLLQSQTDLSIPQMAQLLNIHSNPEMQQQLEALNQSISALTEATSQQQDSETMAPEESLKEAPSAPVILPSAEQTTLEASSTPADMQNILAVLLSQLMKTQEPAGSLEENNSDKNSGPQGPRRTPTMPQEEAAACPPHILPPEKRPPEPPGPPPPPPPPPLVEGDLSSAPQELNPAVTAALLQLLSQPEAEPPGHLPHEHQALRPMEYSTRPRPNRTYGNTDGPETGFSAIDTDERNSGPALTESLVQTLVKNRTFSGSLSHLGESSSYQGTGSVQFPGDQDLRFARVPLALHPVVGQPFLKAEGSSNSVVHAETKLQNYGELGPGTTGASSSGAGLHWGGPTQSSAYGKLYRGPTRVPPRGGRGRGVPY
Description: as §1, §2

[4] = target: T4, OCI-AML5 total protein extracts (cyclin K, CDKs, DDB1) (Homo sapiens, UniProt P21439); settings: protein ABCB4 (P21439)
T4 construct: endogenous in cells; host or cells: OCI-AML5 total protein extract
T4 sequence (P21439 whole entry): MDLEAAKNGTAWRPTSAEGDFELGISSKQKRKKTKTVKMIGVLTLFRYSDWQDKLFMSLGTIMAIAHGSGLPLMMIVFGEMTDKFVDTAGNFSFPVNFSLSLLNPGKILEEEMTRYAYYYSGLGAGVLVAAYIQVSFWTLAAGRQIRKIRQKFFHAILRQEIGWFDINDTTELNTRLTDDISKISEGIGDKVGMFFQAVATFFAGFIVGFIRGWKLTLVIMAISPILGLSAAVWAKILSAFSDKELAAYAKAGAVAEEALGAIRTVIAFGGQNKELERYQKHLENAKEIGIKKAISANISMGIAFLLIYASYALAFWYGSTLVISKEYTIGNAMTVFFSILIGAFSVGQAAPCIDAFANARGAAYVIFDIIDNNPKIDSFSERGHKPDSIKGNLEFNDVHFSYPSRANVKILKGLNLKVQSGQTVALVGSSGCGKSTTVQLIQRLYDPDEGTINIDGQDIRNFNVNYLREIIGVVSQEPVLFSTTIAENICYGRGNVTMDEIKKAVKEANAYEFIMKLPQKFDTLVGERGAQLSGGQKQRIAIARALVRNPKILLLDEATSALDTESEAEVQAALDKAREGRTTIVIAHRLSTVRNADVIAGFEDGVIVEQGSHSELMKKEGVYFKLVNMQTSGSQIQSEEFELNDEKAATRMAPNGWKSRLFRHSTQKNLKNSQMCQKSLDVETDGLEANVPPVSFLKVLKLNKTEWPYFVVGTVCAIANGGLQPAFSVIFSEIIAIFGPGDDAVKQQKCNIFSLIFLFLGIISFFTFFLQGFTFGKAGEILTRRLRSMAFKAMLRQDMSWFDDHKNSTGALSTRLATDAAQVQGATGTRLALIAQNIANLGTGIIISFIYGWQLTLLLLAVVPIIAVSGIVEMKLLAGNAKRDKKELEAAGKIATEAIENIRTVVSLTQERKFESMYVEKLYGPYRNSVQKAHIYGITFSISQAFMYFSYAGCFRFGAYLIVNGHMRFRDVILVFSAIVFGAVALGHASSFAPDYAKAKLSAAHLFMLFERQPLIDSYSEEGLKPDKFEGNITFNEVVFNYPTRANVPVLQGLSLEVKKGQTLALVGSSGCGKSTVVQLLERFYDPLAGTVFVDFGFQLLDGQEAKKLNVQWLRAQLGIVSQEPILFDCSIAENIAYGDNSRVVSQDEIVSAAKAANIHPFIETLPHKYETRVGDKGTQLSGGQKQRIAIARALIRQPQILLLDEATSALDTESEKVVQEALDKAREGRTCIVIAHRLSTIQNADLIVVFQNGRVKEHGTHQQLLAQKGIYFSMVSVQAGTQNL
Description: as §1, §2

[5] = target: T5, OCI-AML5 total protein extracts (cyclin K, CDKs, DDB1) (Homo sapiens, UniProt Q96IU4); settings: protein ABHD14B (Q96IU4)
T5 construct: endogenous in cells; host or cells: OCI-AML5 total protein extract
T5 sequence (Q96IU4 1-210): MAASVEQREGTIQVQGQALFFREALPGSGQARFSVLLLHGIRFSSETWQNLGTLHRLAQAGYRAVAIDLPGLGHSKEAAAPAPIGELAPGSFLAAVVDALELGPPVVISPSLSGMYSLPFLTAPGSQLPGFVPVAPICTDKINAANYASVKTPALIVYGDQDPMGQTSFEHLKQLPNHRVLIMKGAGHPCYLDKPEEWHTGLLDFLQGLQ
Description: as §1, §2

[6] = target: T6, OCI-AML5 total protein extracts (cyclin K, CDKs, DDB1) (Homo sapiens, UniProt Q86UQ4); settings: protein ABCA13 (Q86UQ4)
T6 construct: endogenous in cells; host or cells: OCI-AML5 total protein extract
Description: as §1, §2

[7] = target: T7, OCI-AML5 total protein extracts (cyclin K, CDKs, DDB1) (Homo sapiens, UniProt P50750); settings: OCI-AML5 total protein extracts; DEP analysis
T7 construct: endogenous in cells; host or cells: OCI-AML5 total protein extract
T7 sequence (P50750 whole entry): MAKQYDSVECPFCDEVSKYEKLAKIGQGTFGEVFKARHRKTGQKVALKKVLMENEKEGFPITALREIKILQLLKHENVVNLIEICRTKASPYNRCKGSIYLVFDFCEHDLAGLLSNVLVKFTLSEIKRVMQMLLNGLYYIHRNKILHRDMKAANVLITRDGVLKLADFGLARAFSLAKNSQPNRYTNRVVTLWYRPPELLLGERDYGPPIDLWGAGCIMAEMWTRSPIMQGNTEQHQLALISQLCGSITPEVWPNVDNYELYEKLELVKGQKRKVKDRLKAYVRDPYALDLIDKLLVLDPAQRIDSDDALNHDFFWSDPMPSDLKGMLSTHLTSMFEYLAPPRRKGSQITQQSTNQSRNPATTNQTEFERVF
Description: as §1, §2

[8] = target: T8, OCI-AML5 total protein extracts (cyclin K, CDKs, DDB1) (Homo sapiens, UniProt O75909); settings: OCI-AML5 total protein extracts; DEP analysis
T8 construct: endogenous in cells; host or cells: OCI-AML5 total protein extract
T8 sequence (O75909 whole entry): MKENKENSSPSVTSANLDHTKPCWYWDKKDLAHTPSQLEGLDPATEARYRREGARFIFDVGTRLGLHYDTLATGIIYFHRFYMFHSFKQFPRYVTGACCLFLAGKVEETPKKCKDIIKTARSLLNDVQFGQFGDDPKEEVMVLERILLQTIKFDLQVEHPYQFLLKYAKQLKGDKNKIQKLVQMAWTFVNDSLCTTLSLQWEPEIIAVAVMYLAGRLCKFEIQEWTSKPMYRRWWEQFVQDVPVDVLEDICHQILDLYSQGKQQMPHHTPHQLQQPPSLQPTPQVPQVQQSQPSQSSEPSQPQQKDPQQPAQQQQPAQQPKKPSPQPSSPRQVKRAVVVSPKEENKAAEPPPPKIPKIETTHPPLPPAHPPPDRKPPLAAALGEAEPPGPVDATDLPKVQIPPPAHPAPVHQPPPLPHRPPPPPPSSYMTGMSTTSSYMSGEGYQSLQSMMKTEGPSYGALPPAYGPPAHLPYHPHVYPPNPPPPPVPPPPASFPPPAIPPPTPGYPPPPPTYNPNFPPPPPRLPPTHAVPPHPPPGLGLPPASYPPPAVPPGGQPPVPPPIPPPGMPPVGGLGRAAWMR
Description: as §1, §2

[9] = target: T9, OCI-AML5 total protein extracts (cyclin K, CDKs, DDB1) (Homo sapiens, UniProt Q16531); settings: OCI-AML5 total protein extracts
T9 construct: endogenous in cells; host or cells: OCI-AML5 total protein extract
T9 sequence (Q16531 whole entry): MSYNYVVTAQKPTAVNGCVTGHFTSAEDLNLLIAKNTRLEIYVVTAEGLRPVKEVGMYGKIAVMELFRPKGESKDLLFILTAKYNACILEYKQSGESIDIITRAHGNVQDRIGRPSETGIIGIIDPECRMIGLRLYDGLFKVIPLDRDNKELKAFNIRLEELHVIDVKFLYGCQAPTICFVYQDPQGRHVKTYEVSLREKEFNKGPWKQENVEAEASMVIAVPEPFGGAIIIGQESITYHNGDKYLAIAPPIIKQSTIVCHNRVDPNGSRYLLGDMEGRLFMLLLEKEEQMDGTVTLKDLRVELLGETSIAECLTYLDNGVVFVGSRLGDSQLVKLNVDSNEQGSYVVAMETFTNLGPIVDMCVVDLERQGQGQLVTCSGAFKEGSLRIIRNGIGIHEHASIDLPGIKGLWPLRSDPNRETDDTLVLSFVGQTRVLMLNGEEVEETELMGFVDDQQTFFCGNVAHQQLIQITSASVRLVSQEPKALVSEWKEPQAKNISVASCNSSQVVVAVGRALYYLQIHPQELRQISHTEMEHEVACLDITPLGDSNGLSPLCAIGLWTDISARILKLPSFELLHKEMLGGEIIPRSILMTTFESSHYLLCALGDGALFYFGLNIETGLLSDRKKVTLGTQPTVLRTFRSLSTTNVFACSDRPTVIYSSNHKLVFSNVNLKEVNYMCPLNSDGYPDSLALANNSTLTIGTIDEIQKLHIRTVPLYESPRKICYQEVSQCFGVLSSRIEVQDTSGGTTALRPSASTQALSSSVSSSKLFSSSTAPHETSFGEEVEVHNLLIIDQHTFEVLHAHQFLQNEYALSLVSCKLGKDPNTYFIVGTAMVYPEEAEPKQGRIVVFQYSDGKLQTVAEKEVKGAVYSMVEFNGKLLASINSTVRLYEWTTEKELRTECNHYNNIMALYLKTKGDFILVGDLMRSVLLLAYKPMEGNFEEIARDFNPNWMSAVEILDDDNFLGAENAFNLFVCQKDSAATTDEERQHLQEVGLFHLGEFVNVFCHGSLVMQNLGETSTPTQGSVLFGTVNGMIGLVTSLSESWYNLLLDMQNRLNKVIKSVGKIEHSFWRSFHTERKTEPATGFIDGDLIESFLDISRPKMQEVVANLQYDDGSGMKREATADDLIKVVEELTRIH
Description: as §1, §2

[10] = centered abundance, competition (compe)
[11] = probe vs probe with competition
[12] = probe with competition (compe) vs UOM-005839
[13] = probe with competition (compe) vs beads

SMILES: CN(CCOCCOCCN)c1ccc(CC(=O)Nc2ncc(SCc3cccnc3)s2)cc1 [UOM-005790]
- UOM-005790_centered ([1]; centered abundance): 1.53
- UOM-005790compe_centered [1, 10]: 1.26
- UOM-005790_vs_Beads_ratio ([1]; immobilized probe vs beads): 5.2
- UOM-005790_vs_UOM-005839_ratio ([1]; probe vs probe UOM-005839): 0.645
- UOM-005790_vs_UOM-005790compe_ratio [1, 11]: 0.275
- UOM-005790compe_vs_UOM-005839_ratio [1, 12]: 0.37
- UOM-005790compe_vs_Beads_ratio [1, 13]: 4.93
- UOM-005790_centered ([2]; centered abundance): 2.21
- UOM-005790compe_centered [2, 10]: 1.7
- UOM-005790_vs_Beads_ratio ([2]; immobilized probe vs beads): 4.82
- UOM-005790_vs_UOM-005839_ratio ([2]; probe vs probe UOM-005839): 3.51
- UOM-005790_vs_UOM-005790compe_ratio [2, 11]: 0.512
- UOM-005790compe_vs_UOM-005839_ratio [2, 12]: 3
- UOM-005790compe_vs_Beads_ratio [2, 13]: 4.31
- pull-down enrichment of CDK12 [3]: 0.5953 and 0.6765 and 0.5336
- UOM-005790_centered ([4]; centered abundance): -2.58
- UOM-005790compe_centered [4, 10]: -1.22
- UOM-005790_vs_Beads_ratio ([4]; immobilized probe vs beads): -5.48
- UOM-005790_vs_UOM-005839_ratio ([4]; probe vs probe UOM-005839): -3.49
- UOM-005790_vs_UOM-005790compe_ratio [4, 11]: -1.36
- UOM-005790compe_vs_UOM-005839_ratio [4, 12]: -2.12
- UOM-005790compe_vs_Beads_ratio [4, 13]: -4.12
- UOM-005790_centered ([5]; centered abundance): 1.19
- UOM-005790compe_centered [5, 10]: 1.42
- UOM-005790_vs_Beads_ratio ([5]; immobilized probe vs beads): 4.31
- UOM-005790_vs_UOM-005839_ratio ([5]; probe vs probe UOM-005839): 0.69
- UOM-005790_vs_UOM-005790compe_ratio [5, 11]: -0.227
- UOM-005790compe_vs_UOM-005839_ratio [5, 12]: 0.916
- UOM-005790compe_vs_Beads_ratio [5, 13]: 4.54
- UOM-005790_centered ([6]; centered abundance): 0.56
- UOM-005790compe_centered [6, 10]: -0.869
- UOM-005790_vs_Beads_ratio ([6]; immobilized probe vs beads): 0.378
- UOM-005790_vs_UOM-005839_ratio ([6]; probe vs probe UOM-005839): 0.434
- UOM-005790_vs_UOM-005790compe_ratio [6, 11]: 1.43
- UOM-005790compe_vs_UOM-005839_ratio [6, 12]: -0.995
- UOM-005790compe_vs_Beads_ratio [6, 13]: -1.05
- pull-down enrichment of CDK9 [7]: 2.785 and 2.837 and 2.887
- pull-down enrichment of Cyclin K [8]: 2.779 and 2.982 and 2.894
- pull-down enrichment of DDB1 [9]: not enriched
